Assays:
Type in all cases: in vivo
rat VPA model [1] = experiment: Irritability-like behaviour: bottle brush test in rat VPA model, juvenile P30 and adult (Example 5; DS = DS-E); conditions: risperidone 0.125 mg/kg
Procedure: (§1) Time-mated female Wistar rats were administered a single dose of valproic acid (VPA, 600 mg/kg, i.p.) on gestational day 12.5. Male offspring were delivered and confirmation of the VPA induced developmental deficit was rapidly achieved by examination of characteristic “tail kinks” in the juvenile animals. The timeline of experiments is outlined in FIG. 8 and animals were randomly allocated to treatment groups (Table O).
(§2) Control animals were administered sterile saline (0.9% w/v, i.p.) in utero and the vehicle control (ethanol: Kolliphor HS15: saline (1:1:18, v/v/v), i.p.
To test irritability-like behavior we employed the bottle-brush test modified for rats (Riittinen et al. 1986 Dev Psychobiol 19:105-111). Irritability-like behavior was examined by measuring aggressive and defensive responses during the bottle-brush test carried out in juvenile animals immediately after play behavior evaluation at P30 and again in adult animals on P59. Irritability-like behavior testing was performed under dark conditions with a red light and infrared camera recording. Testing consisted of 10 trials per rat in plastic cages (377×325×170 mm) with fresh bedding. During each trial, the rat was placed at the back of the cage. A bottle-brush was rotated toward the animal's whiskers (from the front of the cage). The brush was rotated around the whiskers of the rat for approximately 1 second. The brush was then rotated back to the front of the cage where it hangs vertically for approximately 2 seconds, during which behavioural responses were recorded. An intertrial interval of 10 second was used.
Employing video analysis of the test, the following were scored as aggressive responses: smelling the brush, biting the brush (during the initial phase of rotating the brush forward and back to the starting position), boxing the target, following the brush, exploring the brush (using paws or mouth to manipulate the brush without biting or boxing), mounting the brush, and delayed biting (during the 2 s that the brush hung at the starting position). Additionally, the following were scored as defensive responses: escaping from the brush, digging, burying, jumping, climbing, vocalization, freezing, and grooming. Frequency of each response and the sum of aggressive and defensive behaviours were recorded.
(§3) All data was assessed for outliers (ROUT; Prism V9.02) and then normality using D'Agostino and Pearson normality test for n=8, or Shapiro-Wilks test for n<8 or unequal groups. Data that were non-normally distributed were analysed using Kruskal-Wallis followed by planned comparisons with Dunn's correction. Normally distributed data were analysed using one-way ANOVA or two-way ANOVA followed by planned comparisons with Sidak's correction. […] Statistical significance was defined as p<0.05 using Prism 9.0.2 software for analysis.

rat VPA model [2] = experiment: Direct social interaction and social play P30 in rat VPA model (Example 5; DS = DS-E)
Procedure: as §1, §2
At postnatal day 30 and following 8 days treatment with the test compounds, animals were evaluated for juvenile play behavior. […] Animals were first allowed to individually explore the arena for 10-minute acclimatization trial (P29) and 24 hours later evaluated for social play (P30). On day of evaluation animals were scored for play activity measured by pinning (latency to, total duration and frequency), mounting (latency to, total duration and frequency) and latency, frequency and duration of social play behavior (following or approaching test partner, sniffing or social grooming). […]
All data was assessed for outliers (ROUT; Prism V9.02) and then normality using D'Agostino and Pearson normality test for n=8, or Shapiro-Wilks test for n<8 or unequal groups. […]

rat VPA model [3] = experiment: Open field test (locomotor activity, circling, grooming, centre zone) P56-57 in rat VPA model (Example 5; DS = DS-E); conditions: adult, risperidone 0.125 mg/kg
Procedure: as §1, §2
Animals were scored for locomotor activity and exploratory behavior in a two 10-minute trials within an open field arena over two days. Each day the animals were placed into a […] black Perspex box with 30 cm side walls, under low light and monitored via remote video capture for spontaneous activity. Linked to Ethovision XT image analysis software this was analysed for total distance moved and number and duration of center zone crossings. Manual scoring of the videos was then conducted (blinded to treatment group) to determine frequency of circling behavior (number of 360 degree turns) and time spent grooming.
as §3

rat VPA model [4] = experiment: Marble burying test P58 in rat VPA model (Example 5; DS = DS-E); conditions: adult P58, risperidone 0.125 mg/kg
Procedure: as §1, §2
The marble burying test has been employed as an animal model of anxiety and impulsive behavior. […] Over a 10-minute test period animals were allowed to freely explore the apparatus and subsequently removed whereupon marbles covered by at least one half with bedding were considered buried and this number was recorded and was the main outcome measure for this behavior. Video recording of the test period was evaluated for locomotor activity and scored for frequency and duration of digging behavior.
as §3

rat VPA model [5] = experiment: Social interaction: Social Approach Avoidance (SAA) P60 in rat VPA model (Example 5; DS = DS-E); conditions: adult; risperidone 0.125 mg/kg
Procedure: as §1, §2
This test was originally used for assessing anxiety-like behavior and subsequently used to assess the social behavior in potential animal models of schizophrenia (Sams-Dodd, 1995 Behav Pharmacol. 6:55) but has been extended to the study of autism models (Schneider and Przewlocki, 2005 Neuropsychopharmacol. 30:80). Therefore, utilising a model based on published designs (Brodkin et al., 2004 Brain Res. 1002:151; Moy et al., 2004 Genes Brain Behav. 3:287) adult animals were assessed for social preference following prenatal VPA exposure whereby a novel animal was introduced to the test arena (n=8). The main outcome measure was the time engaged in active social behavior. Additionally, the time spent in each of the social, non-social and neutral chamber was also determined. […]

[6] = system: valproic acid-induced autism spectrum disorder (ASD) mouse model; experiment: Valproic acid-induced ASD model, bottle-brush test (irritability) (Example 6, Table P); parameters: key: +: improvement; Ø: no change; −: not tested; conditions: 0.125 mg/kg I.P.
Description: The main objective of the following study was to assess the effect of the drug substance (DS) of Example 1 in ameliorating autism-like behavior in valproic acid-induced autism spectrum disorder (ASD) mouse model (FIGS. 19A-B).

[7] = juvenile P30, 8 days, vs VPA/VEH

Compound: Cc1nc2n(c(=O)c1CCN1CCC(c3noc4cc(F)ccc34)CC1)CCCC2 [Risperidone]
- defensive behaviours, bottle brush (rat VPA model [1]; adult): no significant effect
- aggressive behaviour, bottle brush (rat VPA model [1]; adult, all days of assessment): significantly reduced
- irritability score, bottle brush (rat VPA model [1]; adult, all four assessment days): significantly reduced
- aggressive responses, bottle brush (rat VPA model [1]; [7]): significantly reduced
- irritability score (aggressive + defensive), bottle brush (rat VPA model [1]; [7]): no effect
- Social duration and frequency behaviours (rat VPA model [2]; juvenile P30, risperidone 0.125 mg/kg): no effect
- any measure of play or social interaction (rat VPA model [2]; juvenile animals, Risperidone 0.125 mg/kg): without effect
- grooming behaviour (rat VPA model [3]; day 1): significantly reduced
- frequency of centre zone crossings (rat VPA model [3]; day 1, vs VPA/Veh): significant decrease
- circling behaviour (rat VPA model [3]; day 2): significantly reversed
- grooming behaviour (rat VPA model [3]; day 2): significantly reduced
- number of centre zone crossings (rat VPA model [3]; day 2): significantly reduced
- time spent in the centre zone (rat VPA model [3]; day 2): significantly reduced
- increase in locomotor activity (distance travelled) (rat VPA model [3]; day one): significantly prevented
- time spent in the centre zone (rat VPA model [3]; day one): significantly reduced
- increase in locomotor activity (distance travelled) (rat VPA model [3]; day two): significantly prevented
- VPA-induced digging behaviour (rat VPA model [4]): significantly reduced
- number of marbles buried (rat VPA model [4]): no significant effect
- number of marbles buried (rat VPA model [4]; listed as risperidone): significantly reduced
- time engaged in active social behaviour (VPA deficit) (rat VPA model [5]): not prevented
- Adult bottle brush irritability test ([6]; control beside DS): +
- Juvenile bottle brush irritability test ([6]; control beside DS): Ø
- Adult bottle brush irritability test ([6]; control beside sCBD): +
- Juvenile bottle brush irritability test ([6]; control beside sCBD): +
- Adult bottle brush irritability test ([6]; control beside sCBD-2): +
- Juvenile bottle brush irritability test ([6]; control beside sCBD-2): +
